The source of these data is PubChem BioAssay AID435027 (Sanford-Burnham Center for Chemical Genomics, 2010).

The assay has as its target Tyrosine-protein phosphatase non-receptor type 22 (Homo sapiens) (UniProt Q9Y2R2). As to the kind of experiment: LYP phosphatase inhibitor potency, dose response, biochemical, pCAP substrate, fluorescence intensity (AID 435027). Conditions: recombinant LYP.

Sequence of Tyrosine-protein phosphatase non-receptor type 22 (Homo sapiens) (Q9Y2R2 whole entry, looked up): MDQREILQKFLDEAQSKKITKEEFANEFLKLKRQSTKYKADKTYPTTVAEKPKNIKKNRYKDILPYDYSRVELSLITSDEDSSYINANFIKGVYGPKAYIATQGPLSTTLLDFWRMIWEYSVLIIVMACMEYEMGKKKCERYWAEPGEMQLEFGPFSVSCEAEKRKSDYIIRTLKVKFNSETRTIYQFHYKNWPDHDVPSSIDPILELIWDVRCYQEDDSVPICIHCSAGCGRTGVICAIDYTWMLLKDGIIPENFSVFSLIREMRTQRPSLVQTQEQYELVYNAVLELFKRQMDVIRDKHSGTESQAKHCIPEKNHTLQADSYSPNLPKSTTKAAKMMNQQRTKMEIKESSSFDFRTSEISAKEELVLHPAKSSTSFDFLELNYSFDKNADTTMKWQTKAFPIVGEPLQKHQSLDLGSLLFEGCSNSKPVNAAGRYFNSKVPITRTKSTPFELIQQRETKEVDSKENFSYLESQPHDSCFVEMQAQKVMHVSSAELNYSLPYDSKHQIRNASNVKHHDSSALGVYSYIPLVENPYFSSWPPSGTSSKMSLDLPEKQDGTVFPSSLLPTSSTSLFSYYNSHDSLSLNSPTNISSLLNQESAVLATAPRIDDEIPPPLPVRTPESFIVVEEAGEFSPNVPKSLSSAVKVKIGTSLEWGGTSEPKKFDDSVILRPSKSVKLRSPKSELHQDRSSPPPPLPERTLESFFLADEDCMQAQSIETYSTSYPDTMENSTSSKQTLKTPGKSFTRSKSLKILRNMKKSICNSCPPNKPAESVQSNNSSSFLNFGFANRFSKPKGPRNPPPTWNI

A word on the IC50: it is the concentration at which inhibition is half-maximal. In the case of `Cc1ccc(/C=C/c2nc3sc(C(=O)O)c(C)c3c(=O)[nH]2)cc1[N+](=O)[O-]`, the IC50 is 4.58 µM.

In the case of `O=C(O)CCCN1C(=O)/C(=C/c2ccc(-c3nc4ccccc4s3)o2)SC1=S`, the IC50 is 4.76 µM.
